“Also recorded” adds a separate entry of the source.
Columns and labels:
[1] = test system: acetaminophen-induced liver injury; assay: Acetaminophen (APAP)-induced hepatitis model; format: in vivo, mice
Description: The animals were exposed to CO at a concentration of 250 ppm. […] Mice were placed in the exposure chamber as required.
To generate the data in FIG. 21, Male C57BL/6J mice were exposed to CO (250 ppm) either 1 hr prior or 4 hr post administration of APAP (500 mg/kg, i.p.). The mice were then maintained in CO for the duration of the experiment. Serum ALT levels were determined 20 hr after APAP administration. Control mice received APAP and were maintained in air. This protocol was designed to allow hepatitis to develop for four hours before administering CO.

[2] = test system: mouse primary hepatocytes; assay: TNF-α/ActD-induced cell death, crystal violet viability; format: cell-based
Description: Mouse primary hepatocytes were harvested from C57BL/6J, mkk3^−/−, inos^−/− (in-house breeding colony), or hmox-1^−/− mice as described in Kim et al. (J. Biol. Chem. 272: 1402-1411 (1997)). Hepatocytes were used on days 1-3 following harvest.
(§1) Cells were treated with TNF-α (10 ng/ml) and actinomycin-D (Act-D; 200 ng/ml, Sigma Chemical Co. St. Louis, Mo.) to induce cell death.
Whether exogenous CO is protective against hepatocyte cell death in vitro was investigated. To generate the data presented in FIG. 2, mouse hepatocytes were pre-incubated with CO (250 ppm) for 1 hr (standard pre-treatment time for all experiments) prior to addition of TNF-α/Act-D (10 ng/200 ng/ml respectively). Cells were maintained in CO for the duration of the experiment. Twelve hours afterward, cell viability was measured as described in Kim et al. (J. Biol. Chem. 272: 1402-1411 (1997)). Adenoviral experiments involved incubating hepatocytes overnight with 10 pfu/cell of the adenovirus prior to addition of TNF-α/ActD, and then assaying for viability using crystal violet. The roles of signaling molecules guanylyl cyclase and p38 MAPK were also investigated in this model. To evaluate the role of cGMP and confirm the role of NF-κB, hepatocytes were treated separately with the soluble guanylate cyclase (sGC) inhibitor 1H-[1,2,4]Oxadiazolo[4,3-a]quinoxalin-1-one (ODQ; Calbiochem; 2-10 μM) or the NF-κB inhibitor BAY 11-7082, (10 μM). Cells were treated with the inhibitors for 1 hour prior to the 1 hour pretreatment with CO. TNF-α/ActD was then added and the cells tested for viability 12 hours later. NF-κB activation was critical to the protection elicited by CO while cGMP was not involved.
To generate the data presented in FIG. 9, mouse hepatocytes were isolated from inos^−/− or from wild type C57BL/6J mice, which were then pre-treated for 1 hr with L-NIO (1 mM) to inhibit iNOS prior to CO administration. Those groups exposed to CO received a one-hour pretreatment prior to addition of TNF-α/ActD and were then returned to CO exposure.
To generate the data presented in FIG. 19, mouse hepatocytes were isolated from HO-1 null mice (hmox-1^−/−) and wild type (C57BL/6J) littermates, pretreated for 1 hour with CO (250 ppm), and treated with TNF-α/ActD. Viability was assayed as described above.
To generate the data presented in FIG. 20, mouse hepatocytes were isolated from HO-1 null mice (hmox-1^−/−) and wild type (C57BL/6J) littermates, pretreated with the NO donor SNAP (500 μM), and then treated with TNF-α/ActD 1 hour later.

[3] = test system: human primary hepatocytes; assay: TNF-α/ActD-induced cell death in human hepatocytes; format: cell-based; settings: exposure to CO
Description: as §1
To generate the data presented in FIG. 3, human primary hepatocytes obtained from a donor liver resection were treated with CO and TNF-α/ActD as described above.

iNOS = iNOS promoter luciferase reporter assay in hepatocytes; format: cell-based; settings: CO 250 ppm
Description: In some experiments, gene transfer of an IκBα superrepressor (Hellerbrand et al., Hepatology 27:1285-1295 (1998)) or β-galactosidase using adenoviral vectors (10 pfu/cell) was performed 12 hours prior to TNF-α/ActD treatment. NF-κB activation was evaluated using a luciferase reporter assay as described in Chow et al. (J. Biol. Chem. 274: 10689-10692 (1999)). Briefly, hepatocytes were co-transfected with NF-κB reporter constructs (pGL3-kappaβ luciferase, 100 ng/well; and pIEP-Lac-z 0.5 μg/well) using Lipofectin™ (Invitrogen, Carlsbad, Calif.) as instructed by the manufacturer. Evaluation of iNOS expression was performed using a luciferase reporter assay as described in Lowenstein et al. (Proc. Natl. Acad. Sci. U.S.A 90: 9730-9734 (1993)). Briefly, hepatocytes were co-transfected with iNOS promoter reporter constructs (pXP2; 1 μg/well) and pIEP-LacZ (0.5 μg/well) as described above.
Hepatocytes were transfected with plasmids as described above and treated with various stimuli 24 hours after transfection. Luciferase activity (reported as arbitrary units; A.U.) was assayed 6 hours after initiation of treatment, using a luciferase assay kit (Promega, Madison, Wis.) and a Berthold Luminometer. Results were corrected for transfection efficiency and protein concentration. […]

HO-1 = assay: Liver HO-1 expression (immunoblot); format: in vivo, mice
Description: Western blot analysis was performed on primary hepatocytes in culture or from liver homogenates with antibodies to iNOS (Transduction Laboratories, Lexington, Ky.; 1:1000), HO-1 (Calbiochem; 1:2000), or β-actin (Sigma Chemical; 1:5000). Thirty μg protein in cell culture experiments or 100 μg protein from liver homogenates was loaded per well for SDS-PAGE.
To assess the role of iNOS on TNF-α/D-gal-induced HO-1 expression in the liver (data presented in FIG. 16), mice were administered L-NIL (5 mg/kg, i.p.) 2 hr prior to pre-treatment with CO (250 ppm) and every 2 hr thereafter. Control mice received L-NIL and remained in room air.

[C-]#[O+] [CO, carbon monoxide]
Protection with CO pre-treatment prior to APAP compared with post-treatment ([1]; CO 250 ppm 1 hr prior to APAP): protection was similar
Serum ALT ([1]; CO 250 ppm from 4 hr post APAP 500 mg/kg i.p., 20 hr after APAP, controls 622±44): 175±137
Reduction in liver injury ([1]; CO 4 hours after APAP 500 mg/kg i.p.): 62%
TNF-α/ActD-induced cell death, hmox-1−/− hepatocytes ([2]; CO 250 ppm, 1 hour pretreatment): unable to protect
TNF-α/ActD-induced cell death, wild type hepatocytes ([2]; CO 250 ppm, 1 hr pre-incubation and maintained, viability 12 hours): significantly less cell death; also recorded: significantly protected
Cell death in the presence of SB203580 ([2]; SB203580 3-30 μM, data not shown): inhibited cell death
Cell death in hepatocytes from mkk3−/− mice ([2]; data not shown): inhibited cell death
Protection when CO treatment initiated after addition of TNF-α ([2]; data not shown): less protection was observed
Protection against cell death where iNOS expression was absent or inhibited ([2]; inos−/− hepatocytes or wild type with L-NIO 1 mM, 12 hr): did not provide protection
TNF-α induced apoptosis [3]: inhibited TNF-α induced apoptosis
iNOS luciferase reporter activity (iNOS): highly significant increase in activity
Liver HO-1 expression when iNOS was inhibited (HO-1; CO 250 ppm with L-NIL 5 mg/kg i.p. every 2 hr): unable to induce expression
Liver HO-1 expression (HO-1; CO 250 ppm, presence and absence of TNF-α/D-gal): significant increase

Source: patent publication US9522163B2, “Methods of treating hepatitis” (priority 2002, dated 2016)
